Experimental data as given in US12286632B2, “Rationally-designed synthetic peptide shuttle agents for delivering polypeptide cargos from an extracellular space to the cytosol and/or nucleus of a target eukaryotic cell, uses thereof, methods and kits relating to same” (Feldan Bio Inc., priority 2016, dated 2025).
Bridge positions count the residues as written; N and C are the ends. Ends that are not written are not given here. Peptide text beside a SMILES is read from it. I, II: the chains in the order shown.

Tests used:
[1] = in vitro; details: human, HeLa cells
[2] = test system: HeLa cells; test: GFP-NLS protein transduction assay (flow cytometry: Pos cells %, viability %, relative fluorescence intensity; microscopy)
[3] = in vitro; details: human, HeLa cells; remark: listed apart in the source
[4] = Cell viability (%) (±St. Dev.; n = 3)
[5] = Table B3, HeLa cells, GFP-NLS cargo
[6] = Table 10.3a, Protocol B, HeLa, shuttle 50 μM, GFP-NLS 5 μM, 10 seconds
[7] = Table 10.3e, Protocol B, HeLa, shuttle 20 μM, GFP-NLS 5 μM, 1 minute
[8] = Cell viability (%) (±St Dev.; n = 3)

CSCC[C@H](NC(=O)[C@H](CCCCN)NC(=O)[C@H](CC(N)=O)NC(=O)[C@H](CC(C)C)NC(=O)[C@H](Cc1c[nH]c2ccccc12)NC(=O)[C@H](Cc1ccccc1)NC(=O)[C@H](CS)NC(=O)[C@H](CC(C)C)NC(=O)[C@H](Cc1ccccc1)NC(=O)[C@H](CCC(N)=O)NC(=O)[C@H](Cc1c[nH]cn1)NC(=O)[C@H](Cc1c[nH]cn1)NC(=O)[C@H](Cc1c[nH]cn1)NC(=O)[C@H](Cc1c[nH]cn1)NC(=O)[C@H](Cc1c[nH]cn1)NC(=O)[C@@H](N)Cc1c[nH]cn1)C(=O)NCC(=O)N[C@@H](CCCCN)C(=O)N[C@@H](Cc1c[nH]cn1)C(=O)N[C@@H](CC(N)=O)C(=O)N[C@H](C(=O)N[C@H](C(=O)N[C@@H](Cc1c[nH]c2ccccc12)C(=O)N[C@@H](Cc1c[nH]cn1)C(=O)NCC(=O)N[C@@H](CCCNC(=N)N)C(=O)N[C@@H](Cc1c[nH]cn1)C(=O)N[C@@H](CC(C)C)C(=O)N[C@@H](CCCCN)C(=O)N[C@@H](CS)C(=O)N[C@@H](Cc1c[nH]cn1)C(=O)N[C@@H](CCCCN)C(=O)N[C@@H](CCCNC(=N)N)C(=O)NCC(=O)N[C@@H](CCCCN)C(=O)NCC(=O)O)C(C)C)[C@@H](C)O [FSN3] (H-HHHHHHQFLCFWLNKMGKHNTVWHGRHLKCHKRGKG-OH; N-terminus and C-terminus assumed)
viability [1, 4]: 97.2 ± 2.03%

CC(C)C[C@H](NC(=O)[C@H](CC(C)C)NC(=O)[C@H](CCCNC(=N)N)NC(=O)[C@H](CCCNC(=N)N)NC(=O)[C@H](Cc1c[nH]c2ccccc12)NC(=O)[C@H](CC(C)C)NC(=O)[C@H](Cc1ccc(O)cc1)NC(=O)[C@H](CC(C)C)NC(=O)[C@H](CC(C)C)NC(=O)[C@H](Cc1c[nH]cn1)NC(=O)[C@H](Cc1c[nH]cn1)NC(=O)[C@H](Cc1c[nH]cn1)NC(=O)[C@H](Cc1c[nH]cn1)NC(=O)[C@H](Cc1c[nH]cn1)NC(=O)[C@@H](N)Cc1c[nH]cn1)C(=O)N[C@@H](CCCCN)C(=O)N[C@@H](Cc1ccccc1)C(=O)N[C@@H](Cc1c[nH]c2ccccc12)C(=O)N[C@@H](CS)C(=O)N[C@@H](C)C(=O)NCC(=O)N[C@@H](CCCNC(=N)N)C(=O)N[C@@H](CCCNC(=N)N)C(=O)N[C@H](C(=O)N[C@@H](Cc1ccc(O)cc1)C(=O)N[C@@H](C)C(=O)N[C@@H](CCCCN)C(=O)N[C@@H](CS)C(=O)N[C@@H](C)C(=O)N[C@@H](CCCCN)C(=O)N[C@@H](C)C(=O)N[C@@H](Cc1ccc(O)cc1)C(=O)NCC(=O)N[C@@H](CS)C(=O)N[C@@H](Cc1ccccc1)C(=O)O)C(C)C [FSN4] (H-HHHHHHLLYLWRRLLKFWCAGRRVYAKCAKAYGCF-OH; N-terminus and C-terminus assumed)
Mean % cells with GFP signal (±St Dev.; n = 3) [2, 5]: 5.84 ± 0.49% | viability [1, 4]: 90.5 ± 4.18%

N=C(N)NCCC[C@H](NC(=O)[C@H](CCCNC(=N)N)NC(=O)[C@H](CCCNC(=N)N)NC(=O)[C@H](CCC(N)=O)NC(=O)[C@H](CCCNC(=N)N)NC(=O)[C@H](CCCNC(=N)N)NC(=O)[C@H](CCCCN)NC(=O)[C@H](CCCCN)NC(=O)[C@H](CCCNC(=N)N)NC(=O)CNC(=O)[C@@H](N)Cc1ccc(O)cc1)C(=O)O [TAT, reference compound]
Mean % cells with GFP signal (±St. Dev.; n = 3) ([2]; Table 10.4, Protocol B, HeLa, peptide 50 μM, GFP-NLS 5 μM, 10 seconds): 1.1 ± 0.27% | GFP-NLS transduction (flow cytometry, in words) ([2]; peptide 50 μM, GFP-NLS 5 μM, 10 seconds, Protocol B): not able to successfully transduce GFP-NLS | viability at 10 s, 50 µM [1]: 94.6 ± 0.44%

CC[C@H](C)[C@H](NC(=O)[C@@H](NC(=O)[C@H](Cc1ccccc1)NC(=O)[C@@H](N)CCCCN)[C@@H](C)O)C(=O)N[C@H](C(=O)N[C@@H](Cc1ccccc1)C(=O)N1CCC[C@H]1C(=O)N[C@@H](Cc1c[nH]cn1)C(=O)N[C@@H](CC(N)=O)C(=O)N[C@@H](CCC(N)=O)C(=O)N[C@@H](CCCCN)C(=O)NCC(=O)N[C@@H](CC(N)=O)C(=O)N[C@@H](Cc1c[nH]c2ccccc12)C(=O)N[C@@H](CCCCN)C(=O)N[C@@H](CC(N)=O)C(=O)N[C@H](C(=O)N1CCC[C@H]1C(=O)N[C@@H](CO)C(=O)N[C@@H](CC(N)=O)C(=O)N[C@@H](Cc1ccc(O)cc1)C(=O)N[C@@H](Cc1c[nH]cn1)C(=O)N[C@@H](Cc1ccc(O)cc1)C(=O)N[C@@H](CS)C(=O)N1CCC[C@H]1C(=O)N[C@@H](Cc1ccc(O)cc1)C(=O)N[C@@H](C)C(=O)N[C@@H](CCCNC(=N)N)C(=O)N[C@@H](C)C(=O)N[C@@H](C)C(=O)N[C@@H](C)C(=O)N[C@@H](CCCNC(=N)N)C(=O)N[C@@H](CCC(N)=O)C(=O)N[C@@H](C)C(=O)N[C@@H](CCCNC(=N)N)C(=O)N[C@@H](C)C(=O)O)C(C)C)C(C)C [VSVG-PTD4]
Cell viability (%) (±St. Dev.; n = 3) [2, 6]: 100% | viability [3]: 96.2 ± 2.57%

CC(C)C[C@H](NC(=O)[C@H](C)NC(=O)[C@H](CCCCN)NC(=O)[C@H](C)NC(=O)[C@H](CC(C)C)NC(=O)[C@H](CCCCN)NC(=O)[C@H](C)NC(=O)[C@H](CCC(=O)O)NC(=O)[C@H](Cc1c[nH]c2ccccc12)NC(=O)CNC(=O)[C@@H](NC(=O)[C@@H]1CCCN1C(=O)[C@H](CCCNC(=N)N)NC(=O)[C@H](CC(C)C)NC(=O)[C@H](CS)NC(=O)[C@@H](N)CC(C)C)C(C)C)C(=O)N[C@@H](C)C(=O)N[C@@H](CCCCN)C(=O)N[C@@H](C)C(=O)N[C@@H](CC(C)C)C(=O)N[C@@H](C)C(=O)N[C@@H](CCCCN)C(=O)N[C@@H](Cc1c[nH]cn1)C(=O)N[C@@H](CC(C)C)C(=O)N[C@@H](C)C(=O)N[C@@H](CCCCN)C(=O)N[C@@H](C)C(=O)N[C@@H](CC(C)C)C(=O)N[C@@H](C)C(=O)N[C@@H](CCCCN)C(=O)N[C@@H](C)C(=O)N[C@@H](CC(C)C)C(=O)N[C@@H](CCCCN)C(=O)N[C@@H](C)C(=O)N[C@@H](CS)C(=O)N[C@@H](CCC(=O)O)C(=O)N[C@@H](C)C(=O)O [Xentry-KALA] (H-LCLRPVGWEAKLAKALAKALAKHLAKALAKALKACEA-OH)
viability [3]: 75.3 ± 4.29%

HAHHAHHAHKWKLFKKIGAVLKVLTTGYARAAARQARA [3HA-CM18-PTD4]
Cell viability (%) (±St. Dev.; n = 3) [2, 7]: 43.6 ± 2.8% | viability [3]: 51.5 ± 4.83%

HHHAHHHKWKLFKKIGAVLKVLTTGYARAAARQARA [HA-CM18-PTD4]
Cell viability (%) (±St. Dev.; n = 3) [2, 7]: 68.3 ± 4.1% | viability [3]: 53.2 ± 4.62%

HHHHHHFRKLWLAIVRAKK [FSN8]
viability [1, 4]: 94.5 ± 3.72%

HHHHHHHHHHHHKWKLFKKIGAVLKVLTTGYARAAARQARA [12His-CM18-PTD4]
Cell viability (%) (±St. Dev.; n = 3) [2, 7]: 33.4 ± 4.3% | viability [3]: 97.5 ± 1.57%

HHHHHHKKALLALALHHLAHLALHLALALKKAYARAAARQARA [His--PTD4]
Cell viability (%) (±St. Dev.; n = 3) [2, 6]: 98 ± 1.5%

HHHHHHKLKLRSRLKWGRTQLWRALAKKALLHHHHHH [FSN2]
Mean % cells with GFP signal (±St Dev.; n = 3) [2, 5]: 12.13 ± 2.06% | viability [1, 4]: 91.3 ± 4.66%

HHHHHHKRKKKRRAKKKRAWLYLALLLWALALHHHHHH [FSD3]
viability [1, 8]: 91.1 ± 6.37%

HHHHHHKRKRRSKKRKLWTQGWLLLALLALAHHHHHH [FSN1]
Mean % cells with GFP signal (±St Dev.; n = 3) [2, 5]: 9.14 ± 0.93% | viability [1]: 94.3 ± 3.07%

HHHHHHKRQLKRKLRKWKRLLRLLRLLARLWLHHHHHH [FSD4]
viability [1, 8]: 86.1 ± 8.15%

HHHHHHKWAKLLRAFAKAIKKLYARLARRQARTGHHHHHH [FSD13]
viability [1, 8]: 49.5 ± 5.13%

HHHHHHKWKLFKKIGAVLKVLTTGGWTLNSAGYLLKINLKALAALAKKIL [His-CM18-Transportan (TPT)]
Cell viability (%) (±St. Dev.; n = 3) ([2]; Table 10.1, Protocol B, HeLa, shuttle 50 μM, GFP-NLS 5 μM, 10 seconds): 41.3 ± 3.3% | Cell viability (%) (±St. Dev.; n = 3) [2, 6]: 41.3 ± 3.29%

HHHHHHKWKLFKKIGAVLKVLTTGGWTLNSAGYLLKINLKALAALAKKIL [His-CM18-Transportan]
viability [3]: 11.9 ± 1.07%

HHHHHHKWKLFKKIGAVLKVLTTGYARAAARQARACCCCCC (cysteines drawn unpaired) [His-CM18-PTD4-6Cys]
Mean % cells with GFP signal (±St Dev.; n = 3) [2, 7]: 41.3 ± 4.28%

HHHHHHKWKLFKKIGAVLKVLTTGYGRKKRRQRRRC [His-CM18-TAT-Cys]
Mean % cells with GFP signal (±St. Dev.; n = 3) [2, 6]: 49.3 ± 4.1% | viability at 10 s, 50 µM [1]: 41.4 ± 3.91%

HHHHHHKWKLLRRAAKKAARRYLKLLLKQLKLHHHHHH [FSD1]
viability [1, 8]: 60.3 ± 6.18%

HHHHHHLAKLFKWLRALIRQGAKRKTKRASAHHHHHH [FSD17]
viability [1, 8]: 99.1 ± 2.09%

HHHHHHLALARWARYFRILAKLKRTKRGQAKAHHHHHH [FSD14]
viability [1, 8]: 92.8 ± 7.42%

HHHHHHLLKLWRRLLKLFRKALRALAKRAKSALKRAQAA [FSN5]
viability [1, 4]: 85.4 ± 6.16%

HHHHHHLLKLWSRLLKLWTQALRALAKRAKALAHHHHHH [FSN6]
Mean % cells with GFP signal (±St Dev.; n = 3) [2, 5]: 15.74 ± 1.63% | viability [1, 4]: 32.6 ± 4.26%

HHHHHHWYLALLALYWQRAKAKTRQRRRHHHHHH [FSD6]
viability [1, 8]: 88.1 ± 7.66%

I: KWKLFKKIGAVLKVLTTGRQIKIWFQNRRMKWKKC / II: KWKLFKKIGAVLKVLTTGRQIKIWFQNRRMKWKKC (disulfide I:35-II:35) [dCM18-Pen-Cys]
viability [3]: 3.36 ± 0.26%

KWKLFKKIGAVLKVLTTGHHHHHHYARAAARQARA [CM18-His-PTD4]
Cell viability (%) (±St. Dev.; n = 3) [2, 7]: 57.7 ± 4.2%

KWKLFKKIGAVLKVLTTGYARAAARQARAHHHHHH [CM18-PTD4-His]
viability [3]: 29.5 ± 0.21%

LHHHSHHLIHIWLLFKLKLKKKKAARRARRARRHH [FSD29]
viability at 1 min, 10 µM [1, 4]: 89.8 ± 8.48%

LIKLWSRFIKFWTQGRRIKAKLARAGQSWFG [FSN7]
viability [1, 4]: 93.5 ± 3.61%

MHHHHHHKWKLFKKIGAVLKVLTTGYARAAARQARAC [Met-His-CM18-PTD4-Cys]
Mean % cells with GFP signal (±St Dev.; n = 3) [2, 7]: 45.6 ± 3.88%

MHHHHHHKWKLFKKIGAVLKVLTTGYGRKKRRQRRRC [M-His-CM18-TAT-Cys]
viability [3]: 33.1 ± 0.4%

RLHHSHHLIHIWLLFKLKLKKKKRAARRARRHHHL [FSD37]
viability at 1 min, 10 µM [1, 4]: 73.9 ± 2.62%

WEAKLAKALAKALAKHLAKALAKALKACEA [KALA, reference compound]
viability [3]: 90.6 ± 4.16%
